Tested on: women
Test: Effect of one intake of levonorgestrel within different stages of the menstrual cycle on women pregnancies
Assay type: in vivo
Conditions: levonorgestrel 1.5 mg single oral tablet, 1,117 women
Protocol: 1,117 women (aged 24.9+/−6.5 years) received levonorgestrel (1.5 mg) in form of a single oral tablet during different stages of their menstrual cycle.
The reference (day 0) is the ovulation. The fertile period extends from five days before the ovulation to one day after the ovulation.

For `C#C[C@]1(O)CC[C@H]2[C@@H]3CCC4=CC(=O)CC[C@@H]4[C@H]3CC[C@@]21CC` [levonorgestrel, D-(−)-ethyl-13β ethynyl-17α hydroxy-17 gonene-4 one-3], the “% pregnancies (failures)” value (menstrual cycle stage <−5 day (day 0 = ovulation)) was 0%, the “% pregnancies (failures)” value (menstrual cycle stage >+1 day (day 0 = ovulation)) was 44% and the “% pregnancies (failures)” value (menstrual cycle stage between −5 and +1 day (fertile period)) was 56%.
